Measurements reported in ChEMBL document CHEMBL5131388, “Discovery of novel brain-penetrant GluN2B NMDAR antagonists via pharmacophore-merging strategy as anti-stroke therapeutic agents” (Eur J Med Chem, 2022).

How the values were obtained:
[1] = Neuroprotective activity against NMDA-induced neurotoxicity in Sprague-Dawley rat hippocampal neurons assessed as increase in cell viability at 0.1 uM incubated for 18 hrs followed by NMDA addition and measured after 0.5 hrs by MTT assay; assay type: functional, Hippocampal neurone; conditions: time 18.5 hrs
[2] = Neuroprotective activity against NMDA-induced neurotoxicity in Sprague-Dawley rat hippocampal neurons assessed as increase in cell viability at 1 uM incubated for 18 hrs followed by NMDA addition and measured after 0.5 hrs by MTT assay; assay type: functional, Hippocampal neurone; conditions: time 18.5 hrs
[3] = Neuroprotective activity against NMDA-induced neurotoxicity in Sprague-Dawley rat hippocampal neurons assessed as increase in cell viability at 10 uM incubated for 18 hrs followed by NMDA addition and measured after 0.5 hrs by MTT assay; assay type: functional, Hippocampal neurone; conditions: time 18.5 hrs
Glutamate NMDA receptor = test: Displacement of [3H] ifenprodil from Wistar rat glutamate NMDA receptor incubated for 2 hrs by scintillation counting method; assay type: protein-complex assay
Rattus norvegicus [4] = test: Neuroprotective activity in Sprague-Dawley rat model of middle cerebral artery occlusion-induced ischemia-reperfusion injury assessed as decrease in neurological score at 20 mg/kg, po measured 24 hrs post injury by TTC staining based histological analysis; assay type: functional
Rattus norvegicus [5] = test: Neuroprotective activity in Sprague-Dawley rat model of middle cerebral artery occlusion-induced ischemia-reperfusion injury assessed as decrease in cerebral infarction rate at 20 mg/kg, po measured 24 hrs post injury by TTC staining based histological analysis; assay type: functional; set-up: scale not given: the % may be the effect or the level left
[6] = molecular target: Glutamate NMDA receptor; GRIN1/GRIN2A (Homo sapiens) (UniProt Q05586+Q12879); test: Antagonist activity at GluN1/GluN2A NMDA receptor (unknown origin) transfected in HEK293 cells assessed as inhibition of glycine induced current response at 10 uM in presence of L-glutamate by patch-clamp method; assay type: cell-based
[7] = molecular target: Glutamate NMDA receptor; GRIN1/GRIN2B (Homo sapiens) (UniProt Q05586+Q13224); test: Antagonist activity at GluN1/GluN2B NMDA receptor (unknown origin) transfected in HEK293 cells assessed as inhibition of glycine induced current response at 10 uM in presence of L-glutamate by patch-clamp method; assay type: cell-based; conditions: filed as antagonist
[8] = molecular target: Ionotropic glutamate receptor NMDA 1/2C (Homo sapiens) (UniProt Q05586+Q14957); test: Antagonist activity at GluN1/GluN2C NMDA receptor (unknown origin) transfected in HEK293 cells assessed as inhibition of glycine induced current response at 10 uM in presence of L-glutamate by patch-clamp method; assay type: cell-based
[9] = molecular target: Ionotropic glutamate receptor NMDA 1/2D (Homo sapiens) (UniProt Q05586+O15399); test: Antagonist activity at GluN1/GluN2D NMDA receptor (unknown origin) transfected in HEK293 cells assessed as inhibition of glycine induced current response at 10 uM in presence of L-glutamate by patch-clamp method; assay type: cell-based

| Compound | Activity [1] [%] | Activity [2] [%] | Activity [3] [%] | also measured |
| --- | --- | --- | --- | --- |
| O=C1OC(CCCN2CCN(Cc3ccccn3)CC2)c2ccccc21 (stereo unspecified) | 57.46 | 67.89 | 74.65 |  |
| O=C1OC(CCCN2CCN(Cc3ccc(C(F)(F)F)cc3)CC2)c2ccccc21 (single isomer, unassigned; enantiomer A) [listing 1 of 2 here] |  |  |  | Activity ([1]; 0.1 µM): 62.81%; Activity ([2]; 1 µM): 71.91%; Activity ([3]; 10 µM): 81.02% |
| O=C1OC(CCCN2CCN(Cc3ccc(Cl)cc3)CC2)c2ccccc21 (stereo unspecified) | 49.49 | 54.83 | 60.33 |  |
| O=C1OC(CCCN2CCN(Cc3ccc(Br)cc3)CC2)c2ccccc21 (stereo unspecified) | 46.12 | 45.56 | 46.13 |  |
| O=C1OC(CCCN2CCN(Cc3cccc(Cl)c3)CC2)c2ccccc21 (stereo unspecified) | 49.69 | 55.95 | 62.96 |  |
| O=C1OC(CCCN2CCN(Cc3ccc(F)c(F)c3)CC2)c2ccccc21 (stereo unspecified) | 57.3 | 65.4 | 75.45 |  |
| O=C1OC(CCCN2CCN(Cc3cccc([N+](=O)[O-])c3)CC2)c2ccccc21 (stereo unspecified) | 53.23 | 69.03 | 73.28 |  |
| CCCCC1OC(=O)c2ccccc21 (stereo not drawn) [RAC-3-N-BUTYLPHTHALIDE] | 55.71 | 57.94 | 73.45 | Ki (Glutamate NMDA receptor): 14.8 nM; Activity (Rattus norvegicus [4]): 2.13; Activity (Rattus norvegicus [5]): 18.81% |
| O=C1OC(CCCN2CCC(CO)CC2)c2ccccc21 (stereo unspecified) | 60.19 | 74.86 | 78.14 |  |
| Cc1ccc(CN2CCN(CCCC3OC(=O)c4ccccc43)CC2)cc1 (stereo unspecified) | 51.66 | 64.44 | 68.38 |  |
| O=C1OC(CCCN2CCN(Cc3ccc4ccccc4n3)CC2)c2ccccc21 (stereo unspecified) | 49.69 | 55.95 | 62.96 |  |
| COc1ccc(CN2CCN(CCCC3OC(=O)c4ccccc43)CC2)cc1OC (stereo unspecified) | 46.58 | 47.16 | 48.44 |  |
| O=C1OC(CCN2CCCC2)c2ccccc21 (stereo unspecified) | 57.21 | 66.34 | 70.66 |  |
| O=C1OC(CCN2CCc3sccc3C2)c2ccccc21 (stereo unspecified) | 45.88 | 58.81 | 66.05 |  |
| O=C1OC(CCCN2CCN(Cc3ccc(F)cc3)CC2)c2ccccc21 (stereo unspecified) | 52.58 | 64.11 | 72.2 |  |
| O=C1OC(CCCN2CCN(Cc3ccc(C(F)(F)F)cc3)CC2)c2ccccc21 (single isomer, unassigned; enantiomer B) [listing 1 of 2 here] |  |  |  | inhibition [6]: 25.9%; inhibition [7]: 81%; inhibition [8]: 16.2%; inhibition [9]: 20.3% |
| O=C1OC(CCCN2CCN(Cc3ccncc3)CC2)c2ccccc21 (stereo unspecified) | 57.55 | 66.35 | 75.54 |  |
| O=C1OC(CCCN2CCN(Cc3ccc(C(F)(F)F)cc3)CC2)c2ccccc21 (single isomer, unassigned; enantiomer A) [listing 2 of 2 here] |  |  |  | inhibition [6]: 23.4%; inhibition [7]: 71.9%; inhibition [8]: 14.9%; inhibition [9]: 16.7% |

| Compound | Activity [1] [%] | Activity [2] [%] | Activity [3] [%] | also measured |
| --- | --- | --- | --- | --- |
| O=C1OC(CCCN2CCCC2)c2ccccc21 (stereo unspecified) | 56.53 | 65.3 | 73.16 |  |
| Cc1cccc(CN2CCN(CCCC3OC(=O)c4ccccc43)CC2)c1 (stereo unspecified) | 53.08 | 61.15 | 67.43 |  |
| CC(C(O)c1ccc(O)cc1)N1CCC(Cc2ccccc2)CC1 (stereo unspecified) [IFENPRODIL] | 65.93 | 76.98 | 85.83 | Activity (Rattus norvegicus [4]): 1.75; inhibition [6]: 13.1%; inhibition [7]: 135%; inhibition [8]: 28.8%; inhibition [9]: 18.1%; Activity (Rattus norvegicus [5]): 14.35% |
| CS(=O)(=O)c1ccc(CN2CCN(CCCC3OC(=O)c4ccccc43)CC2)cc1 (stereo unspecified) | 50.17 | 55.51 | 61.02 |  |
| O=C1OC(CCCN2CCC(Cc3ccccc3)CC2)c2ccccc21 (stereo unspecified) | 49.13 | 78.13 | 79.12 |  |
| O=C1OC(CCCN2CCN(Cc3ccc([N+](=O)[O-])cc3)CC2)c2ccccc21 (stereo unspecified) | 66.55 | 79.64 | 88.35 | Ki (Glutamate NMDA receptor): 4.55 nM; Activity (Rattus norvegicus [4]): 1.75; Activity (Rattus norvegicus [5]): 14.53% |
| O=C1OC(CCCN2CCCCC2)c2ccccc21 (stereo unspecified) | 63.96 | 70.2 | 77.85 |  |
| O=C1OC(CCCN2CCN(Cc3ccc(C(F)(F)F)cc3)CC2)c2ccccc21 (racemic) |  |  |  | inhibition [6]: 26.6%; inhibition [7]: 75.4%; inhibition [8]: 12%; inhibition [9]: 10.3% |
| O=C1OC(CCCN2CCC(O)CC2)c2ccccc21 (stereo unspecified) | 58.83 | 67.72 | 77.13 |  |
| N#Cc1ccc(CN2CCN(CCCC3OC(=O)c4ccccc43)CC2)cc1 (stereo unspecified) | 49.49 | 54.83 | 60.33 |  |
| O=C1OC(CCCN2CCN(Cc3cccnc3)CC2)c2ccccc21 (stereo unspecified) | 51.84 | 55.95 | 63.33 |  |
| O=C1OC(CCCN2CCN(Cc3ccccc3)CC2)c2ccccc21 (stereo unspecified) | 67.64 | 79.85 | 81.91 | Ki (Glutamate NMDA receptor): 13.6 nM |
| CN(C)CCCC1OC(=O)c2ccccc21 (stereo unspecified) | 48.37 | 77.37 | 78.18 |  |
| O=C1OC(CCCN2CCc3sccc3C2)c2ccccc21 (stereo unspecified) | 49.39 | 61.1 | 66.52 |  |
| O=C1OC(CCCN2CCOCC2)c2ccccc21 (stereo unspecified) | 57.15 | 65.19 | 76.22 |  |
| CN(C)CCC1OC(=O)c2ccccc21 (stereo unspecified) | 56.09 | 71.66 | 73.56 |  |
| O=C1OC(CCCN2CCN(Cc3ccc(C(F)(F)F)cc3)CC2)c2ccccc21 (single isomer, unassigned; enantiomer B) [listing 2 of 2 here] |  |  |  | Activity ([1]; 0.1 µM): 65.86%; Activity ([2]; 1 µM): 81.02%; Activity ([3]; 10 µM): 81.82% |
